According to PubChem BioAssay (NCI):
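Following 48 hours of exposure in 96-well plates, responses at five concentrations were used to interpolate endpoints linearly. TGI marks complete inhibition of growth.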 Peptide text beside a SMILES is read from it. * marks the point of attachment. X34 = O=C(c1ccc(-c2ccc(Cl)cc2Cl)o1)*

Legend:
Experiment in all cases: NCI anticancer screen, dose series, 48 h
U251 CNS = test system: U251 CNS
786-0 renal = test system: 786-0 renal
SK-MEL-5 melanoma = test system: SK-MEL-5 melanoma
HCT-116 colon = test system: HCT-116 colon
SF-268 CNS = test system: SF-268 CNS
SK-MEL-28 melanoma = test system: SK-MEL-28 melanoma
KM12 colon = test system: KM12 colon
K-562 leukemia = test system: K-562 leukemia
LOX IMVI melanoma = test system: LOX IMVI melanoma
NCI/ADR-RES ovarian = test system: NCI/ADR-RES ovarian
A549 NSCLC = test system: A549 NSCLC
SNB-19 CNS = test system: SNB-19 CNS
MALME-3M melanoma = test system: MALME-3M melanoma
T-47D breast = test system: T-47D breast
HOP-92 NSCLC = test system: HOP-92 NSCLC
MOLT-4 leukemia = test system: MOLT-4 leukemia
NCI-H522 lung = test system: NCI-H522 lung
ACHN renal = test system: ACHN renal
NCI-H23 lung = test system: NCI-H23 lung
UACC-257 melanoma = test system: UACC-257 melanoma
HOP-62 NSCLC = test system: HOP-62 NSCLC
TK-10 renal = test system: TK-10 renal
HT29 colon = test system: HT29 colon
PC-3 prostate = test system: PC-3 prostate
SW-620 colon = test system: SW-620 colon
M14 melanoma = test system: M14 melanoma
MDA-MB-231 breast = test system: MDA-MB-231 breast
RXF 393 renal = test system: RXF 393 renal
CCRF-CEM leukemia = test system: CCRF-CEM leukemia
MDA-N = test system: MDA-N
HS 578T breast = test system: HS 578T breast
OVCAR-4 ovarian = test system: OVCAR-4 ovarian
UACC-62 melanoma = test system: UACC-62 melanoma
OVCAR-3 ovarian = test system: OVCAR-3 ovarian
UO-31 renal = test system: UO-31 renal
SF-295 CNS = test system: SF-295 CNS
RPMI-8226 leukemia = test system: RPMI-8226 leukemia
BT-549 breast = test system: BT-549 breast
HL-60(TB) leukemia = test system: HL-60(TB) leukemia
MCF7 breast = test system: MCF7 breast
DU-145 prostate = test system: DU-145 prostate
SN12C renal = test system: SN12C renal
SK-MEL-2 melanoma = test system: SK-MEL-2 melanoma
A498 renal = test system: A498 renal
NCI-H226 lung = test system: NCI-H226 lung
COLO 205 colon = test system: COLO 205 colon
NCI-H460 lung = test system: NCI-H460 lung
IGROV1 ovarian = test system: IGROV1 ovarian
CAKI-1 renal = test system: CAKI-1 renal
MDA-MB-435 = test system: MDA-MB-435
OVCAR-8 ovarian = test system: OVCAR-8 ovarian
OVCAR-5 ovarian = test system: OVCAR-5 ovarian
HCT-15 colon = test system: HCT-15 colon
SK-OV-3 ovarian = test system: SK-OV-3 ovarian
HCC-2998 colon = test system: HCC-2998 colon
SNB-75 CNS = test system: SNB-75 CNS
EKVX NSCLC = test system: EKVX NSCLC
SF-539 CNS = test system: SF-539 CNS
SR leukemia = test system: SR leukemia

Measured: TGI

O=C1NC(=O)C(C(c2ccc([N+](=O)[O-])cc2)C2C(=O)NC(=O)NC2=O)C(=O)N1
not listed: SK-OV-3 ovarian | HCC-2998 colon | SNB-75 CNS | EKVX NSCLC | SF-539 CNS | SR leukemia
> 100 µM: all other assays above

CC(C)(C)OC(=O)NCCC1CNc2ccccc21 (stereo not given)
not listed: LOX IMVI melanoma | CCRF-CEM leukemia | HL-60(TB) leukemia | SN12C renal | NCI-H226 lung | SF-539 CNS | SR leukemia
> 100 µM: all other assays above

CN(/N=C/c1ccc(Cl)c(Cl)c1)C1=NCCCCN1
49.2 µM: A498 renal
80.9 µM: MOLT-4 leukemia
32.5 µM: MALME-3M melanoma
27.8 µM: SK-MEL-5 melanoma
61.1 µM: SF-539 CNS
29.9 µM: M14 melanoma
79.4 µM: HCT-116 colon
83.5 µM: CCRF-CEM leukemia
39.2 µM: NCI-H226 lung
47.5 µM: KM12 colon
42.1 µM: SK-MEL-2 melanoma
38 µM: SW-620 colon
65.5 µM: HL-60(TB) leukemia
42.2 µM: MDA-N
82.7 µM: CAKI-1 renal
35.4 µM: HOP-62 NSCLC
50.8 µM: UACC-257 melanoma
27.2 µM: LOX IMVI melanoma
54.3 µM: MCF7 breast
33.7 µM: NCI-H522 lung
47.8 µM: 786-0 renal
36 µM: MDA-MB-435
37.2 µM: COLO 205 colon
52.8 µM: UACC-62 melanoma
81.6 µM: HCT-15 colon
63.9 µM: HCC-2998 colon
64 µM: RPMI-8226 leukemia
69.3 µM: K-562 leukemia
49.6 µM: HOP-92 NSCLC
not listed: SK-MEL-28 melanoma | RXF 393 renal | UO-31 renal
> 100 µM: all other assays above

COC(=O)C(CC(C)C)NC(=O)C(Cc1ccccc1)NC(=O)C1CCCN1C(=O)C(CO)NC(=O)c1ccc(-c2ccc(Cl)cc2Cl)o1 (stereo not given) (X34-SPFL-OMe; configuration not given here)
67.5 µM: TK-10 renal
60.4 µM: SF-539 CNS
97.6 µM: NCI-H23 lung
72.6 µM: HCT-15 colon
46.5 µM: SF-295 CNS
55.9 µM: U251 CNS
92.1 µM: HCT-116 colon
50.4 µM: OVCAR-5 ovarian
91.2 µM: A549 NSCLC
92.8 µM: NCI/ADR-RES ovarian
89.9 µM: SN12C renal
30.8 µM: COLO 205 colon
27.4 µM: HCC-2998 colon
38.9 µM: NCI-H460 lung
65.2 µM: UO-31 renal
90.3 µM: MDA-MB-435
89.2 µM: K-562 leukemia
57.8 µM: UACC-257 melanoma
56.9 µM: 786-0 renal
44.7 µM: RXF 393 renal
44.2 µM: RPMI-8226 leukemia
88.8 µM: SNB-75 CNS
69.6 µM: HL-60(TB) leukemia
47.9 µM: LOX IMVI melanoma
25.7 µM: SK-OV-3 ovarian
32.3 µM: MDA-MB-231 breast
76.5 µM: A498 renal
44.9 µM: NCI-H226 lung
80 µM: MOLT-4 leukemia
40.7 µM: HT29 colon
75.7 µM: BT-549 breast
33.7 µM: SK-MEL-2 melanoma
63.9 µM: HOP-92 NSCLC
35.2 µM: SK-MEL-5 melanoma
49 µM: M14 melanoma
not listed: HOP-62 NSCLC | OVCAR-3 ovarian | IGROV1 ovarian | EKVX NSCLC | SR leukemia
> 100 µM: all other assays above
